Legend:
[1] = Dissolution of paracetamol in hydroalcoholic solution; assay type: physicochemical; details: ethanol at 45%
Method: The coefficient for dissolution of paracetamol in ethanol makes it possible to obtain a complete dissolution of said active ingredient at a level of 250 mg of paracetamol per 2 ml of ethanol at 45%. This coefficient can be modulated based on the degree of alcohol and the water/ethanol ratio that is used. By way of example, a 45% water/ethanol mixture at 50/50 by volume produces a better solubilization of paracetamol, compared to that obtained in pure ethanol.

[2] = administered dosage; cited from earlier work

For `CC(=O)Nc1ccc(O)cc1` [paracetamol], the “complete dissolution of the active ingredient” value [1] is listed as 250 mg per 2 ml and the “dosage above which toxic to the liver” value [2] is listed as “higher than 4 g”.

— patent publication US8722744B2, “Galenical form for the administration of paracetamol by transmucous means” (priority 2006, dated 2014)
